The text below walks through data of PubChem BioAssay (NCI).

“And” between values parts separate entries of the source, which are not always exact repeats. Identical values can stand only once.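 48-hour exposure; five concentrations; linearly interpolated endpoints. GI50 is the concentration that inhibits growth by half. TGI denotes the concentration required for complete inhibition of growth.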

Assay in all cases: growth of human tumour cells (NCI), 48 h
In test [1] the test system is RXF 393 renal.
For test [2], the system named is NCI-H460 lung.
The test system of test [3] is SF-295 CNS.
The subject of test [4] is HCC-2998 colon.
The test system of test [5] is UACC-257 melanoma.
Test [6] deals with SK-MEL-28 melanoma.
The subject of test [7] is SNB-75 CNS.
The test system of test [8] is A549 NSCLC.
Test [9] relates to HOP-62 NSCLC.
The test system of test [10] is OVCAR-5 ovarian.

Take `CC1=C(C(=O)Nc2cc(=O)n(C)c(=O)n2C)C(c2ccc([N+](=O)[O-])cc2)C(C(=O)Nc2cc(=O)n(C)c(=O)n2C)=C(C)N1`: the TGI in [1], in [2], in test [3], in [4], in test [5] and in [6] was > 100 µM each time. Besides, the TGI in [7], in test [8], in test [9] and in [10] was > 100 µM each time.
With `COc1ccc(-c2nc(C(=O)c3ccccc3)n(CC(=O)c3ccccc3)c2-c2ccc(OC)cc2)cc1`, the GI50 in test [1], in test [2], in test [3], in [4], in test [5] and in test [6] was > 100 µM each time. Also, the GI50 in [7], in test [8], in test [9] and in test [10] was > 100 µM in each case. The TGI in [1], in test [2], in test [3], in test [4], in [5] and in test [6] was > 100 µM in each case. Besides, the TGI in [7], in test [8], in test [9] and in [10] was > 100 µM in each case.
Consider `COC(=O)c1c(O)c([N+](=O)[O-])cc2c1c1c(n2Cc2ccccc2)C(=O)c2ccccc2C1=O`, for which the GI50 in test [1] was 12.3 µM; in [2], 4.94 µM; in test [3] it was 52.1 µM; in test [4], 11.2 µM; in test [5], 41 µM; in test [6], 34.9 µM. Moreover, the GI50 in test [7] was > 100 µM; in test [8], 20.4 µM; in test [9], 21.3 µM; in test [10], 28.6 µM. In addition, the TGI in [1] is 61.9 µM; in test [2], 27.3 µM; in test [3] it was > 100 µM; in test [4], 23.2 µM; in [5], > 100 µM; in test [6], > 100 µM. For the same compound, the TGI in test [7] is > 100 µM; in test [8], > 100 µM; in [9] it was 49.8 µM; in test [10] it was 66.7 µM.
As to `CCOC(=O)C(=O)Nc1ccc(Cl)cc1C`, the TGI in test [1], in test [2], in test [3], in test [4], in test [5] and in [6] was > 100 µM each time. In addition, the TGI in [7], in [8], in test [9] and in test [10] was > 100 µM in each case.
On to `Nc1ncnc2c1c(-c1cccc(OCc3ccccc3)c1)cn2C1CC(CN2CCC2)C1` (centres undefined), for which the GI50 was 1.71 µM and 2 µM in [1]; 2.41 µM and 2.87 µM in test [2]; 1.89 µM and 2.36 µM in [3]; 2.26 µM and 5.4 µM in test [4]; 0.559 µM and 1.13 µM in test [5]; 1.33 µM and 1.63 µM in test [6]. The GI50 in [7] was 1.7 µM and 2.29 µM; in test [8], 1.01 µM and 2.91 µM; in test [9], 1.88 µM and 3.79 µM; in test [10], 0.844 µM and 2.48 µM. The TGI in test [1] is 4.27 µM and 7.26 µM; in test [2], 15.4 µM and > 10 µM; in [3] it was 3.93 µM and 5.63 µM; in test [4], 10.6 µM and > 10 µM; in test [5], 2.1 µM and 2.41 µM; in test [6], 2.78 µM and 3.52 µM. Further, the TGI was 4.86 µM and 8.46 µM in [7]; 7.55 µM and > 10 µM in [8]; 8.33 µM and > 10 µM in test [9]; 14.9 µM and > 10 µM in test [10].
Consider `COc1cc(Nc2ncc(F)c(Nc3ccc4c(n3)NC(=O)C(C)(C)O4)n2)cc(OC)c1OC`, for which the GI50 in test [1] is 0.418 µM; in test [2] it was > 100 µM; in [3], 4.4 µM; in test [4], > 100 µM; in test [5], > 10 µM; in [6] it was > 100 µM. Also, the GI50 in test [7] is 0.385 µM; in [8], 4.75 µM; in test [9] it was 1.38 µM and 4.74 µM; in [10], 3.85 µM. Also, the TGI in test [1] was 5.89 µM; in [2], > 100 µM; in test [3], > 10 µM; in test [4], > 100 µM; in [5] it was > 10 µM; in [6], > 100 µM. Also, the TGI is > 10 µM in test [7], > 10 µM in test [8], > 100 µM in test [9] and > 10 µM in test [10].
For the compound `CCN(CC)CCCC(C)Nc1nc(C)cc(Nc2ccc3nc(C)cc(N)c3c2)n1` (centres undefined), the GI50 in [1] was 55.1 µM; in test [2], 24.3 µM; in test [3], 0.0287 µM; in [4], 26.9 µM; in test [5], 36.4 µM; in test [6], 24.3 µM. Also, the GI50 in test [7] is 19.8 µM; in [8], > 100 µM; in [9] it was 38.9 µM; in [10], 45.8 µM. Besides, the TGI in [1] was > 100 µM; in [2], 62.8 µM; in test [3] it was 28.7 µM; in test [4], 82.9 µM; in [5], > 100 µM; in test [6] it was 50.1 µM. Moreover, the TGI in test [7], in test [8], in test [9] and in [10] was > 100 µM each time.
`N#CC(C#N)N=Nc1ccc(Br)cc1`: the GI50 in test [1] was 3.63 µM; in test [2], 11.5 µM; in test [3] it was 30.3 µM; in test [4] it was 8.04 µM; in test [5] it was 2.12 µM; in test [6] it was 3.41 µM. The GI50 in [7] was 13.7 µM; in [8], 47.9 µM; in test [9], 27.1 µM; in test [10] it was 4.8 µM. In addition, the TGI is 14 µM in test [1]; > 100 µM in [2]; > 100 µM in test [3]; 33.1 µM in [4]; 7.54 µM in test [5]; 26.5 µM in [6]. For the same compound, the TGI is > 100 µM in test [7], > 100 µM in test [8], > 100 µM in [9] and > 72.6 µM in [10].
`CN(CCc1ccccn1)c1nc(=[N+](C)C)ss1`: the TGI in test [1], in test [2], in test [3], in test [4], in [5] and in test [6] was > 100 µM each time. In addition, the TGI in [7], in test [8], in [9] and in [10] was > 100 µM throughout.
On to `NCCN.NCCN.O=C[O-].O=C[O-].[Co+3].[O-][Cl+3]([O-])([O-])[O-]`, for which the GI50 in test [1], in test [2], in test [3], in [4], in [5] and in test [6] was > 100 µM in each case. For the same compound, the GI50 in [7], in [8], in test [9] and in [10] was > 100 µM in each case. For the same compound, the TGI in test [1], in test [2], in [3], in test [4], in test [5] and in [6] was > 100 µM each time. Further, the TGI in test [7], in test [8], in [9] and in [10] was > 100 µM throughout.
Regarding `Cc1ccccc1C(=O)Oc1ccc(O)cc1`, the TGI in [1], in test [2], in test [3], in [4], in test [5] and in [7] was > 100 µM throughout. Also, the TGI in test [8], in test [9] and in [10] was > 100 µM throughout.
Take `O=C(Cc1nc2ccccc2s1)C(=O)Nc1cccc(Cl)c1`: the TGI in test [1], in [3], in test [4], in [5], in test [6] and in test [7] was > 100 µM in each case. Besides, the TGI in test [8], in [9] and in test [10] was > 100 µM throughout.
With `COc1ccc(/C=C2\CC(C)CC3C2=NN(C(C)=O)C3c2ccc(OC)cc2)cc1` (centres undefined), the GI50 in test [1] is 27.2 µM; in [2], 18.5 µM; in test [3], 18.2 µM; in [4], 17.5 µM; in test [5], 19.8 µM; in test [7], 17.7 µM. Besides, the values for the GI50 in [8], in [9] and in test [10] were 25.1 µM, 20 µM and 21.6 µM, respectively. For the same compound, the TGI in test [1] was > 100 µM; in test [2], 48.7 µM; in test [3], 41.8 µM; in [4], 40 µM; in [5] it was 45 µM; in [7], 53.3 µM. Further, the TGI in test [8] was > 100 µM; in test [9] it was 41.4 µM; in test [10], 48.2 µM.
Take `Nc1ccccc1NC(=O)c1ccc(CCCC(=O)Nc2ccc(C3CC3N)cc2)cc1` (centres undefined): the GI50 in [1] is 1.65 µM; in [2], 2.63 µM; in test [3], 1.96 µM; in [4] it was 1.72 µM; in [6], 1.31 µM; in test [7], 1.89 µM. Besides, the GI50 in test [8] is 4.38 µM; in test [9], 2.01 µM; in test [10] it was 0.925 µM. Also, the TGI is 4.1 µM in test [1]; > 100 µM in [2]; 9.43 µM in test [3]; 5.65 µM in test [4]; 11.3 µM in test [6]; 50.4 µM in test [7]. In addition, the figures for the TGI in test [8], in [9] and in [10] were > 100 µM, 20.7 µM and 37.6 µM, respectively.
For `Cc1nccc2c3ccc(OCc4cn(-c5ccc(Cl)cc5)nn4)cc3n(CCCc3ccccc3)c12`, the GI50 in test [1] is 4.45 µM; in [2] it was 2.74 µM; in test [3], 4.81 µM; in test [4] it was 6.13 µM; in test [5] it was 4.58 µM; in test [6], 1.3 µM. Also, the GI50 in [7] is 0.565 µM; in test [8] it was 2.3 µM; in test [10], 7.34 µM. Also, the TGI in test [1] is 11.6 µM; in [2] it was 17.9 µM; in test [3], 12.7 µM; in test [4] it was > 33.3 µM; in [5] it was 13.4 µM; in test [6] it was 5.71 µM. The TGI was 1.57 µM in test [7], > 33.3 µM in test [8] and > 33.3 µM in test [10].
`O=C1c2ccccc2NC1(c1ccccc1)c1c(-c2ccccc2)[nH]c2ccccc12` (centres undefined): the TGI in [1] is 64.1 µM; in [2], > 100 µM; in test [3], > 100 µM; in [4], > 100 µM; in test [5], > 100 µM; in [6], > 100 µM. Besides, the TGI in test [7], in test [8] and in test [9] was > 100 µM each time.
As for `COc1cc2c(cc1OC)C(OC)N(C)c1c-2ccc2cc3c(cc12)OCO3` (centres undefined), the TGI is 22.7 µM in test [1]; 3.58 µM in test [2]; > 75 µM in test [3]; 5.73 µM in [4]; 50.2 µM in test [5]; 33.5 µM in [6]. Also, the TGI is 5.53 µM in test [7], 7.4 µM in test [9] and 11.8 µM in test [10].
`O=C(c1ccccc1)c1oc2ccc(Br)cc2c1-c1cnn(-c2ccccc2)c1`: the TGI in test [1], in [2], in test [3], in test [4], in test [5] and in test [6] was > 100 µM throughout. Further, the TGI in test [7], in test [9] and in test [10] was > 100 µM in each case.
